Read-outs that look alike come from different tables or passages of the source.
How the values were obtained:
[1] = system: THP-1 cell line; test: THP-1 cell viability (cytotoxicity); assay type: cell-based, human; conditions: read-out: Cell viability IC50 (THP1)
Method: THP1 cell viability was measured according to a previously published procedure.[48] […]
Table S3. Cell permeability and cell viability for 5 and 27
Compound Cell-permeability Cell viability IC50 Cell viability IC50 Cell viability IC50
(X x 10-6 cm/s) (THP1) (µM) (HeLa) (µM) (IHTLCP) (µM) […]
(§1) THP1 cell viability was measured according to a previously published procedure.9

[2] = system: HeLa cells; test: HeLa cell viability (PrestoBlue); assay type: cell-based; conditions: Homo sapiens, 48 h
Method: (§2) Cell viability was measured using the PrestoBlue cell viability reagent (Invitrogen) according to the manufacturer’s recommendations.
For HeLa cells, 5000 cells/well were seeded in complete medium on 96-wells, black walls plate the day before the treatment. Compounds were dissolved in medium at the indicated concentrations and added to cells. Five technical replicates were performed for each treatment. 48 h after treatment, 8 μL of PrestoBlue was added to each well and the cells were incubated at 37 °C for 15 min. Fluorescence (excitation 560 nm, emission 590 nm, 10 nm bandwidth) was recorded using a FLUOstar Omega Microplate Reader (BMG). […]
as §2
For HeLa cells, 5000 cells/well were seeded in complete medium on 96-wells, black walls plate the day before the treatment. […] Fluorescence (excitation 560 nm, emission 590 nm, 10 nm bandwidth) was recorded using a FLUOstar Omega Microplate Reader (BMG).
For Immortalized Human Total Liver Cell Population (IHTLCP), 1850 cells/well were seeded in complete Prigrow III medium (abm) in 384-wells, black walls plate (Perkin Elmer) the day before the treatment. […] Percent viability of IHTLCP cells was calculated as FLUcmp -FLUbg/ FLUDMSO -FLUbg (n=3).
as §1

[3] = target: G4 DNA (Pu22); test: Isothermal titration calorimetry (ITC), reverse titration; design: species or system human; conditions: G4 DNA titrated to ligand; 19 °C; one-site binding model
Method: Unfortunately, this was only possible using reverse titration, adding G4 DNA to the ligand, and a direct comparison to the MST binding affinities, which were performed by titrating the ligand to the G4, can thus not be performed. […] The reason why 5 is more efficient in stabilizing G4 DNA could instead be linked to the entropic penalty (−TΔS), which is less for 5 (1.85 kcal/mol) compared to 27 (3.2 kcal/mol).
ITC experiments were performed using a MicroCal ITC200 instrument (GE Healthcare). A buffer containing 10 mM potassium phosphate and 100 mM KCl of pH 7.4 was prepared. The sample cell was filled with a 20 μM ligand, and the syringe with 120 μM prefolded G4 DNA. […] The data was analyzed in MICROCAL PEAQ-ITC analysis software using a one-site binding mode. […]
The following settings were applied: temperature 19 °C, reference power 7 μcal/sec, initial delay 300 sec, stirring speed 1000 RPM, spacing 120 sec, filter 5 sec, first injection 0.5 μL for 1 sec then 2 μL for 4 sec for the subsequent injections, and high-feedback mode. The data was analyzed in MICROCAL PEAQ-ITC analysis software using a one-site binding mode.
Figure S20. Binding curves with their associated ΔG-, ΔH-, and -TΔS-values for compounds 5 and 27 for G4 DNA (Pu22) measured by ITC with a one-site binding model. […]
structure. […] Excitation sculpting was used in the 1D 1H experiments, and 256 scans were recorded. […]

[4] = Homo sapiens, THP-1, THP-1 cell line

SMILES	IC50 [1, 4] [nM]	IC50 ([1]; THP-1 cell line) [nM]	IC50 [2] [nM]	Kd [3] [nM]
Cc1cc(C)c2nc(Nc3nc(C)cc(NCCCN(C)C)n3)nc(C)c2c1 [Compound 5, N4-(3-(Dimethylamino)propyl)-6-methyl-N2-(4,6,8-trimethylquinazolin-2-yl)pyrimidine-2,4-diamine]	2890	2900	880 to 1100	880
Cc1cc(C)c2nc(Nc3nc(C)cc(C)n3)nc(C)c2c1 [Compound 27, N-(4,6-Dimethylpyrimidin-2-yl)-4,6,8-trimethylquinazolin-2-amine]	> 50000	≥ 50000	19000 to 34000	1040
